Structures are written as SMILES. Counter-ions that a name gives are not always drawn.

One may read the inhibition as how much of the control response was suppressed. A high value points to strong suppression.

The target in assay [1] is T1, human hNET (Homo sapiens, UniProt P23975).
T1 construct: expressed in transfected cells
Nature of the assay: Norepinephrine (NE) uptake assay in MDCK-Net6 cells. The note with it: at 30 μM test compound, [3H]NE uptake. The class given is cell-based.

Assay [2] addresses T1, human hNET. The description is as above. Format: cell-based. The settings on record: [3H]NE uptake; for inhibition at 1 µM: 1 μM test compound; for inhibition at 10 µM: at 10 μM test compound. The procedure:
MDCK-Net6 cells, stably transfected with human hNET (Pacholczyk, T., R. D. Blakely, and S. G. Amara, Nature, 1991, 350(6316): p. 350-4) were cultured in growth medium containing high glucose DMEM (Gibco, Cat. No. 11995), 10% FBS (dialyzed, heat-inactivated, US Bio-Technologies, Lot FBD1129HI) and 500 μg/ml G418 (Gibco, Cat. No. 10131). Cells were plated at 300,000/T75 flask and cells were split twice weekly. The JAR cell line (human placental choriocarcinoma) was purchased from ATCC (Cat. No. HTB-144). The cells were cultured in growth medium containing RPMI 1640 (Gibco, Cat. No. 72400), 10% FBS (Irvine, Cat. No. 3000), 1% sodium pyruvate (Gibco, Cat. No. 1136) and 0.25% glucose. Cells were plated at 250,000 cells/T75 flask and split twice weekly. For all assays, cells were plated in Wallac 96-well sterile plates (PerkinElmer, Cat. No. 3983498).
On day 1, cells were plated at 3,000 cells/well in growth medium and maintained in a cell incubator (37° C., 5% CO2). On day 2, growth medium was replaced with 200 μl of assay buffer (25 mM HEPES; 120 mM NaCl; 5 mM KCl; 2.5 mM CaCl2; 1.2 mM MgSO4; 2 mg/ml glucose (pH 7.4, 37° C.)) containing 0.2 mg/ml ascorbic acid and 10 μM pargyline. Plates containing cells with 200 μl of assay buffer were equilibrated for 10 minutes at 37° C. prior to addition of compounds. A stock solution of desipramine was prepared in DMSO (10 mM) and delivered to triplicate wells containing cells for a final test concentration of 1 μM. Data from these wells were used to define non-specific NE uptake (minimum NE uptake). Test compounds were prepared in DMSO (10 mM) and diluted in assay buffer according to test range (1 to 10,000 nM). Twenty-five microliters of assay buffer (maximum NE uptake) or test compound were added directly to triplicate wells containing cells in 200 μl of assay buffer. The cells in assay buffer with test compounds were incubated for 20 minutes at 37° C. To initiate the NE uptake, [^3H]NE diluted in assay buffer (120 nM final assay concentration) was delivered in 25 μl aliquots to each well and the plates were incubated for 5 minutes (37° C.). The reaction was terminated by decanting the supernatant from the plate. The plates containing cells were washed twice with 200 μl assay buffer (37° C.) to remove free radioligand. The plates were then inverted, left to dry for 2 minutes, then reinverted and air-dried for an additional 10 minutes. The cells were lysed in 25 μl of 0.25 N NaOH solution (4° C.), placed on a shake table and vigorously shaken for 5 minutes. After cell lysis, 75 μl of scintillation cocktail was added to each well and the plates were sealed with film tape. The plates were returned to the shake table and vigorously shaken for a minimum of 10 minutes to ensure adequate partitioning of organic and aqueous solutions. The plates were counted in a Wallac Microbeta counter (PerkinElmer) to collect the raw cpm data.
For each experiment, a data stream of cpm values collected from the Wallac Microbeta counter was downloaded to a Microsoft Excel statistical application program. Calculations of EC50 values were made using the transformed-both-sides logistic dose response program written by Wyeth Biometrics Department. The statistical program uses mean cpm values from wells representing maximum binding or uptake (assay buffer) and mean cpm values from wells representing minimum binding or uptake ((1 μM desipramine (hNET) or 1 μM paroxetine (hSERT)). Estimation of the EC50 value was completed on a log scale and the line was fit between the maximum and minimum binding or uptake values. All graphic data representation was generated by normalizing each data point to a mean percent based on the maximum and minimum binding or uptake values. The EC50 values reported from multiple experiments were calculated by pooling the raw data from each experiment and analyzing the pooled data as one experiment.

T1 sequence (P23975 whole entry): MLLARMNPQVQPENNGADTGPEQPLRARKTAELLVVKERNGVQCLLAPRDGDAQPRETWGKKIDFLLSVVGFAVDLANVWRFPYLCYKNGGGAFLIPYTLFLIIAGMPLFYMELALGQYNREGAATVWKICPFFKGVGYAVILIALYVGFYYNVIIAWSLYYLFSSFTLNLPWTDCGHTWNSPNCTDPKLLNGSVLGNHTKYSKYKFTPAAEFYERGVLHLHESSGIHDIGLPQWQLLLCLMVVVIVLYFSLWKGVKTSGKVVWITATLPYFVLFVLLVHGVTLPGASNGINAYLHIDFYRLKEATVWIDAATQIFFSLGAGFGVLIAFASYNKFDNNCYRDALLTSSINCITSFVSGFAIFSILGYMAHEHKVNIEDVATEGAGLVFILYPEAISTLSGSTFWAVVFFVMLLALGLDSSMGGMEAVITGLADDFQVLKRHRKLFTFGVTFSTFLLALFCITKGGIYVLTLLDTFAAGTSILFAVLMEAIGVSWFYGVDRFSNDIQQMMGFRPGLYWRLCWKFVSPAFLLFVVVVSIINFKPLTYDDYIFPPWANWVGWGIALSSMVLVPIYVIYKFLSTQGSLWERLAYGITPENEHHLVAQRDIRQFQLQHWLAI

On human hNET [1], `CC1(C)CC(C)(C)CC(O)(C(CN2CCNCC2)c2cccc(Br)c2)C1` (centres unmarked) [Example 87, 1-[1-(3-bromophenyl)-2-piperazin-1-ylethyl]-3,3,5,5-tetramethylcyclohexanol dihydrochloride] had an inhibition at 30 µM of 47%. Still for that read-out and setting: for `CCC(O)(CC)C(CN1CCN(C)CC1)c1cccc(Cl)c1` (centres unmarked) [Example 94, 2-(3-chlorophenyl)-3-ethyl-1-(4-methylpiperazin-1-yl)pentan-3-ol dihydrochloride] the value was 71%; for `CC(C)(C)C1CCC(O)(C(CN2CCNCC2)c2cccc(Br)c2)CC1` (centres unmarked) [Example 96, 1-[1-(3-bromophenyl)-2-piperazin-1-ylethyl]-4-tert-butylcyclohexanol dihydrochloride], 100%. Molecule `CN1CCN(CC(c2cccc(Cl)c2)C2(O)CCC(C(C)(C)C)CC2)CC1` (centres unmarked) [Example 101, 4-tert-butyl-1-[1-(3-chlorophenyl)-2-(4-methylpiperazin-1-yl)ethyl]cyclohexanol dihydrochloride] yielded an inhibition at 30 µM against human hNET [1] of 100%. Still for that read-out and setting: for `OC1(C(CN2CCNCC2)c2cccc(Br)c2)CCOCC1` (centres unmarked) [Example 103, 4-[1-(3-bromophenyl)-2-piperazin-1-ylethyl]tetrahydro-2H-pyran-4-ol dihydrochloride] the value was 69%; for `OC1(C(CN2CCNCC2)c2cccc(Br)c2)C2CC3CC(C2)CC1C3` (centres unmarked) [Example 107, 2-[1-(3-bromophenyl)-2-piperazin-1-ylethyl]adamantan-2-ol dihydrochloride], 67%. Same read-out and setting: for `COc1ccc(C(CN2CCNCC2)C2(O)CCOCC2)cc1Br` (centres unmarked) [Example 110, 4-[1-(3-bromo-4-methoxyphenyl)-2-piperazin-1-ylethyl]tetrahydro-2H-pyran-4-ol dihydrochloride] the value was 54%. As for `CN1CCN(CC(c2cccc(Cl)c2)C2(O)CC(C)(C)CC(C)(C)C2)CC1` (centres unmarked) [Example 278, 1-[1-(3-chlorophenyl)-2-(4-methylpiperazin-1-yl)ethyl]-3,3,5,5-tetramethylcyclohexanol dihydrochloride], on human hNET [2], the inhibition at 1 µM was 25%. As for `OC1(C(CN2CCNCC2)c2cccc3ccccc23)CCC2CCCCC2C1` (centres unmarked) [Example 329, 2-[1-(1-naphthyl)-2-piperazin-1-ylethyl]decahydronaphthalen-2-ol dihydrochloride], the inhibition at 10 µM on human hNET [2] amounted to 20.9%.

The molecule `CN1CCN(CC(c2cccc(Cl)c2)C2(O)CCCC3CCCCC32)CC1` (centres unmarked) [Example 331, 1-[1-(3-chlorophenyl)-2-(4-methylpiperazin-1-yl)ethyl]decahydronaphthalen-1-ol dihydrochloride] registered an inhibition at 10 µM against human hNET [2] of 11.4%.

At human hNET [2], `CN1CCN(CC(c2cccc(Cl)c2)C2(O)CCC3CCCCC3C2)CC1` (centres unmarked) [Example 332, 2-[1-(3-chlorophenyl)-2-(4-methypiperazin-1-yl)ethyl]decahydronaphthalen-2-ol dihydrochloride] returned an inhibition at 1 µM of 41%.

For the molecule `CC1CCC(O)(C(CN2CCNCC2)c2cccc(Cl)c2)CC1` (centres unmarked) [Example 334, 1-[1-(3-chlorophenyl)-2-piperazin-1-ylethyl]-4-methylcyclohexanol dihydrochloride], the inhibition at 1 µM against human hNET [2] was determined as 71.7%. At human hNET [2], `CC1CCC(O)(C(CN2CCN(C)CC2)c2cccc(Cl)c2)CC1` (centres unmarked) [Example 335, 1-[1-(3-chlorophenyl)-2-(4-methylpiperazin-1-yl)ethyl]-4-methylcyclohexanol dihydrochloride] displayed an inhibition at 1 µM of 49.5%. As to `CCC1CCC(O)(C(CN2CCN(C)CC2)c2cccc(Cl)c2)CC1` (centres unmarked) [Example 336, 1-[1-(3-chlorophenyl)-2-(4-methylpiperazin-1-yl)ethyl]-4-ethylcyclohexanol dihydrochloride], at 1 µM the inhibition at human hNET [2] was 29%.

(Values after US7491723B2, “Alkanol and cycloalkanol-amine derivatives and methods of their use” (Wyeth, priority 2003, dated 2009).)
